The target of this assay is hNav 1.7 (Homo sapiens (Human), UniProt Q15858). As to the kind of experiment: Electrophysiological evaluation, automated patch clamp IonWorks Quattro (Population Patch Clamp mode). To be noted: HEK293A cells stably expressing hNav 1.7/β1/β2; response to second depolarization pulse, pre-pulse potential set to V1/2; read-out: hNav1.7 IC50. In kind it is cell-based.

Where a name gives a salt, the structure may show the parent alone.

hNav 1.7, sequence (Q15858 whole entry): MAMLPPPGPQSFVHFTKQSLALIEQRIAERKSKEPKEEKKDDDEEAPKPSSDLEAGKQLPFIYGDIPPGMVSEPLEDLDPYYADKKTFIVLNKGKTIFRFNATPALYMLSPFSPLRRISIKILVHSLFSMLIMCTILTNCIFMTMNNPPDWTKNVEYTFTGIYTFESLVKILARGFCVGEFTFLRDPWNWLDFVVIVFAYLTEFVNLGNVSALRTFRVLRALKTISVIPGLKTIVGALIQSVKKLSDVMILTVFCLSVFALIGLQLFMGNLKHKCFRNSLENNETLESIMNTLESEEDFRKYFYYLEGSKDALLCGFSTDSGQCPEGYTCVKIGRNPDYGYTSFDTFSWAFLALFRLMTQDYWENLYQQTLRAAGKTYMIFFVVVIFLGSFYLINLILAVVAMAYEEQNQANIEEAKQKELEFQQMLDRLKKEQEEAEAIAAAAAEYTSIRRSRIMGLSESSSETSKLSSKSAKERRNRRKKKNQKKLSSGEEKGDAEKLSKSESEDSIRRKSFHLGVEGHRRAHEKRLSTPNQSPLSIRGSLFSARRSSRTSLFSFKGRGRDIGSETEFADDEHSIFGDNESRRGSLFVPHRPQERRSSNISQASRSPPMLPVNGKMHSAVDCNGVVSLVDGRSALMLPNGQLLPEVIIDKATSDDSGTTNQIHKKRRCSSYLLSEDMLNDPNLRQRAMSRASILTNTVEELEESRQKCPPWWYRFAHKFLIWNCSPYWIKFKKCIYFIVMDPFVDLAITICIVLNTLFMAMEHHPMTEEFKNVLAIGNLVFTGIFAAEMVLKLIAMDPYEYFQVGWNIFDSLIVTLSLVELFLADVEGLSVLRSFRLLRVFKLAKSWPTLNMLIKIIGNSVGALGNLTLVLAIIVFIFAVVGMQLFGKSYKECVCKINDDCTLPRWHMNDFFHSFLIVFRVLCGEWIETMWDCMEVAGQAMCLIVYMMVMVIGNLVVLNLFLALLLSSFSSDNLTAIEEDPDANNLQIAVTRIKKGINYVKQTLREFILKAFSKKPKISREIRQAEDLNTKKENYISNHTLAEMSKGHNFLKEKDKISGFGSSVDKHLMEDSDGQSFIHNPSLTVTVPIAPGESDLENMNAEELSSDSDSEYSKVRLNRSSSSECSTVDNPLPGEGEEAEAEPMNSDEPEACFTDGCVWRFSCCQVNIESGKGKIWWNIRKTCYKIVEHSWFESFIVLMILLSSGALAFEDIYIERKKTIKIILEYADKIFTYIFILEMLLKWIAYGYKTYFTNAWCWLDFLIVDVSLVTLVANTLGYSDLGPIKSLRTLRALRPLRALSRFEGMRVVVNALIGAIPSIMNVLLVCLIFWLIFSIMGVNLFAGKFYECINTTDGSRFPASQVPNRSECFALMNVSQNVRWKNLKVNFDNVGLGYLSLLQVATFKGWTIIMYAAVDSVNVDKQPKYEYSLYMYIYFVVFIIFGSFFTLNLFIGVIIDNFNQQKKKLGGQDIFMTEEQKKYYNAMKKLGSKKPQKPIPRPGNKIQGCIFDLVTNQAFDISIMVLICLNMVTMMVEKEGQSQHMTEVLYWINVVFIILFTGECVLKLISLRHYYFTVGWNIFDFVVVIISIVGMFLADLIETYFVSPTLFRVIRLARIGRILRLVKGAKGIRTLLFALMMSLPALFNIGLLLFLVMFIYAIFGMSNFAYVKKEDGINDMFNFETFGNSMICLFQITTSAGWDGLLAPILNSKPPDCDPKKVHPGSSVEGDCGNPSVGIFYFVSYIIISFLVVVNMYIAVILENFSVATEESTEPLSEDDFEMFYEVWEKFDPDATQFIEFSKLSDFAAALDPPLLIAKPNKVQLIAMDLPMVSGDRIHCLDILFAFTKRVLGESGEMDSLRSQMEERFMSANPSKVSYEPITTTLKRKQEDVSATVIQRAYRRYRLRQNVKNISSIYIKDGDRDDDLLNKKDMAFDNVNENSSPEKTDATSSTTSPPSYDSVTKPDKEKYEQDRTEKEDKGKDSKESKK
hNav 1.7, sequence (Q07699 19-218 partner): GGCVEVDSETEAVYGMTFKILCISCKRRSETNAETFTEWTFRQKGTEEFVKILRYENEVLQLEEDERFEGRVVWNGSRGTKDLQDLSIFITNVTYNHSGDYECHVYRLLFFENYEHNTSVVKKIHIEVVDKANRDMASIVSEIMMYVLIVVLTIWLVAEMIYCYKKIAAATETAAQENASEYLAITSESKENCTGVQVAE
hNav 1.7, sequence (O60939 30-215 partner): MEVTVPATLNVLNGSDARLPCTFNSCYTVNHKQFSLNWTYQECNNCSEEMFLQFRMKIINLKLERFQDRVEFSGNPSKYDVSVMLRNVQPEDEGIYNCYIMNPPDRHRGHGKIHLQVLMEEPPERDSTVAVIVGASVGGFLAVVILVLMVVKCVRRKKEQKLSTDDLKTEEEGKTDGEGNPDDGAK

Take `Cn1nccc1[C@H]1CCC[C@@H]1Oc1ccc(S(=O)(=O)Nc2ccnc(F)n2)cc1F` (relative stereo) [Example 18, 3-Fluoro-N-(2-fluoropyrimidin-4-yl)-4-{[(1S*,2R*)-2-(1-methyl-1H-pyrazol-5-yl)cyclopentyl]oxy}benzenesulfonamide]: the IC50 was 170 nM.

With `Cn1nccc1[C@H]1CCCC[C@@H]1Oc1cc(F)c(S(=O)(=O)Nc2ccnc(=O)[nH]2)cc1Cl` (relative stereo) [Example 153, 5-Chloro-2-fluoro-4-{[(1S*,2R*)-2-(1-methyl-1H-pyrazol-5-yl)cyclohexyl]oxy}-N-(2-oxo-2,3-dihydropyrimidin-4-yl)benzenesulfonamide], the IC50 is more than 100000 nM.

As for `Cc1cc(S(=O)(=O)Nc2ccncn2)c(F)cc1O[C@H]1CCC(F)(F)C[C@@H]1c1ccn[nH]1` (relative stereo) [Example 157, 4-{[(1S*,2R*)-4,4-Difluoro-2-(1H-pyrazol-5-yl)cyclohexyl]oxy}-2-fluoro-5-methyl-N-(pyrimidin-4-yl)benzenesulfonamide], the IC50 turned out to be 50 nM.

In the case of `Cn1nccc1[C@H]1CC[C@H](O)C[C@@H]1Oc1cc(F)c(S(=O)(=O)Nc2ccncn2)cc1Cl` (relative stereo) [Example 163, 5-Chloro-2-fluoro-4-{[(1S*,2R*,5S*)-5-hydroxy-2-(1-methyl-1H-pyrazol-5-yl)cyclohexyl]oxy}-N-(pyrimidin-4-yl)benzenesulfonamide], the IC50 is 190 nM.

Take `Cn1nncc1[C@H]1CCCC[C@@H]1Oc1cc(F)c(S(=O)(=O)Nc2ccncn2)cc1F` (relative stereo) [Example 92, 2,5-Difluoro-4-{[(1S*,2R*)-2-(1-methyl-1H-1,2,3-triazol-5-yl)cyclohexyl]oxy}-N-(pyrimidin-4-yl)benzenesulfonamide]: the IC50 came out at 1000 nM.

For the compound `Cn1cncc1[C@H]1CCCC[C@@H]1Oc1cc(F)c(S(=O)(=O)Nc2ccncn2)cc1F` (relative stereo) [Example 49, 2,5-Difluoro-4-{[(1S*,2R*)-2-(1-methyl-1H-imidazol-5-yl)cyclohexyl]oxy}-N-(pyrimidin-4-yl)benzenesulfonamide], the IC50 turned out to be 660 nM.

Consider `Cn1nccc1[C@H]1C[C@@H](F)C[C@@H]1Oc1cc(F)c(S(=O)(=O)Nc2ccncn2)cc1F` (relative stereo) [Example 106, 2,5-Difluoro-4-{[(1S*,2R*,4R*)-4-fluoro-2-(1-methyl-1H-pyrazol-5-yl)cyclopentyl]oxy}-N-(pyrimidin-4-yl)benzenesulfonamide], for which the concentration for half-maximal inhibition (IC50) worked out at 270 nM.

On to `Cn1nccc1[C@H]1C[C@@H](O)CC[C@@H]1Oc1cc(F)c(S(=O)(=O)Nc2ccncn2)cc1Cl` (relative stereo) [Example 162, 5-Chloro-2-fluoro-4-{[(1S*,2R*,4S*)-4-hydroxy-2-(1-methyl-1H-pyrazol-5-yl)cyclohexyl]oxy}-N-(pyrimidin-4-yl)benzenesulfonamide], for which the half-inhibitory concentration (IC50) was determined as 820 nM.

Consider `CCc1cc(S(=O)(=O)Nc2ccncn2)c(F)cc1O[C@H]1CCC[C@@H]1c1ccnn1C` (relative stereo) [Example 61, 5-Ethyl-2-fluoro-4-{[(1S*,2R*)-2-(1-methyl-1H-pyrazol-5-yl)cyclopentyl]oxy}-N-(pyrimidin-4-yl)benzenesulfonamide], for which the 50% inhibitory concentration (IC50) worked out at 2.6 nM.

In the case of `Cn1nccc1[C@H]1CCC(F)(F)C[C@@H]1Oc1cc(F)c(S(=O)(=O)Nc2ccncn2)cc1F` [Example 102, 4-{[(1S,2R)-5,5-Difluoro-2-(1-methyl-1H-pyrazol-5-yl)cyclohexyl]oxy}-2,5-difluoro-N-(pyrimidin-4-yl)benzenesulfonamide], the 50% inhibitory concentration (IC50) was 36 nM.

As for `Cn1nccc1[C@H]1C[C@H](OCc2ccccc2)CC[C@@H]1Oc1cc(F)c(S(=O)(=O)Nc2ccncn2)cc1F` (relative stereo) [Example 112, 4-{[(1S*,2R*,4R*)-4-(Benzyloxy)-2-(1-methyl-1H-pyrazol-5-yl)cyclohexyl]oxy}-2,5-difluoro-N-(pyrimidin-4-yl)benzenesulfonamide], the half-maximal inhibitory concentration (IC50) worked out at 310 nM.

Take `O=S(=O)(Nc1ccncn1)c1cc(Cl)c(O[C@@H]2CCCC[C@H]2c2ccn[nH]2)cc1F` [Example 159, 5-Chloro-2-fluoro-4-{[(1R,2S)-2-(1H-pyrazol-5-yl)cyclohexyl]oxy}-N-(pyrimidin-4-yl)benzenesulfonamide]: the half-maximal inhibitory concentration (IC50) stood at 9800 nM.

Turning to `O=S(=O)(Nc1cscn1)c1cc(Cl)c(O[C@H]2CCCC[C@@H]2n2ccnc2)cc1F` (relative stereo) [Example 13, 5-chloro-2-fluoro-4-{[(1S*,2S*)-2-(1H-imidazol-1-yl)cyclohexyl]oxy}-N-(1,3-thiazol-4-yl)benzenesulfonamide], the IC50 was determined as 82 nM.

In the case of `Cn1nccc1[C@H]1CCC[C@@H]1Oc1cc(F)c(S(=O)(=O)Nc2ccnc(F)n2)cc1F` (relative stereo) [Example 24, 2,5-Difluoro-N-(2-fluoropyrimidin-4-yl)-4-{[(1S*,2R*)-2-(1-methyl-1H-pyrazol-5-yl)cyclopentyl]oxy}benzenesulfonamide], the IC50 came to 23 nM.

`Cn1nccc1[C@@H]1C[C@@H](O)CC[C@H]1Oc1cc(F)c(S(=O)(=O)Nc2ccncn2)cc1Cl` [Example 164, 5-Chloro-2-fluoro-4-{[(1R,2S,4S)-4-hydroxy-2-(1-methyl-1H-pyrazol-5-yl)cyclohexyl]oxy}-N-(pyrimidin-4-yl)benzenesulfonamide]: the IC50 was more than 10000 nM.

For the compound `Cn1nccc1[C@H]1CCC[C@@H]1Oc1ccc(S(=O)(=O)Nc2ccncn2)cc1C#N` (relative stereo) [Example 26, 3-Cyano-4-{[(1S*,2R*)-2-(1-methyl-1H-pyrazol-5-yl)cyclopentyl]oxy}-N-(pyrimidin-4-yl)benzenesulfonamide], the half-inhibitory concentration (IC50) worked out at 200 nM.

Regarding `O=S(=O)(Nc1ncns1)c1cc(F)c(O[C@H]2CCCC[C@@H]2c2ccccc2)cc1F` (single isomer, unassigned) [Example 1, 2,5-Difluoro-4-{[(1S*,2R*)-2-phenylcyclohexyl]oxy}-N-(1,2,4-thiadiazol-5-yl)benzenesulfonamide], the IC50 was 120 nM.

As to `CCc1cc(S(=O)(=O)Nc2ccncn2)ccc1O[C@H]1CCCC[C@@H]1c1c[nH]nc1N` (relative stereo) [Example 89, 4-{[(1S*,2R*)-2-(3-Amino-1H-pyrazol-4-yl)cyclohexyl]oxy}-3-ethyl-N-(pyrimidin-4-yl)benzenesulfonamide], the IC50 amounted to 130 nM.

With `Cn1nccc1[C@@H]1[C@@H](Oc2cc(F)c(S(=O)(=O)Nc3ccncn3)cc2F)CCCC1(F)F` (relative stereo) [Example 117, 4-{[(1S*,2R*)-3,3-Difluoro-2-(1-methyl-1H-pyrazol-5-yl)cyclohexyl]oxy}-2,5-difluoro-N-(pyrimidin-4-yl)benzenesulfonamide], the IC50 stood at 750 nM.

Take `Cc1cc(S(=O)(=O)Nc2ccncn2)c(F)cc1O[C@@H]1CC(F)(F)CC[C@H]1c1cn[nH]c1` [Example 144, 4-{[(1R,2S)-5,5-Difluoro-2-(1H-pyrazol-4-yl)cyclohexyl]oxy}-2-fluoro-5-methyl-N-(pyrimidin-4-yl)benzenesulfonamide]: the half-inhibitory concentration (IC50) was found to be 3400 nM.

As to `Cn1nccc1[C@@H]1[C@@H](Oc2cc(F)c(S(=O)(=O)Nc3ccncn3)cc2F)CCC1(C)C` (relative stereo) [Example 99, 4-{[(1S*,2R*)-3,3-Dimethyl-2-(1-methyl-1H-pyrazol-5-yl)cyclopentyl]oxy}-2,5-difluoro-N-(pyrimidin-4-yl)benzenesulfonamide], the IC50 is 410 nM.

Turning to `O=S(=O)(Nc1ccncn1)c1cc(F)c(O[C@H]2CCCC[C@@H]2c2ccnnc2)cc1F` (relative stereo) [Example 53, 2,5-Difluoro-4-{[(1S*,2R*)-2-(pyridazin-4-yl)cyclohexyl]oxy}-N-(pyrimidin-4-yl)benzenesulfonamide], the 50% inhibitory concentration (IC50) came to 330 nM.

For the compound `Cn1nccc1[C@H]1CCC[C@@H]1Oc1ccc(S(=O)(=O)Nc2ccncn2)c(F)c1` [Example 124, 2-Fluoro-4-{[(1S,2R)-2-(1-methyl-1H-pyrazol-5-yl)cyclopentyl]oxy}-N-(pyrimidin-4-yl)benzenesulfonamide], the half-inhibitory concentration (IC50) was found to be 2400 nM.

Consider `Nc1n[nH]cc1[C@H]1CCCC[C@@H]1Oc1cc(F)c(S(=O)(=O)Nc2ccncn2)cc1F` (relative stereo) [Example 34, 4-{[(1S*,2R*)-2-(3-Amino-1H-pyrazol-4-yl)cyclohexyl]oxy}-2,5-difluoro-N-(pyrimidin-4-yl)benzenesulfonamide], for which the IC50 amounted to 250 nM.

Turning to `Cn1nccc1[C@H]1CCC[C@@H]1Oc1ccc(S(=O)(=O)Nc2ccncn2)cc1C(F)(F)F` (relative stereo) [Example 21, 4-{[(1S*,2R*)-2-(1-Methyl-1H-pyrazol-5-yl)cyclopentyl]oxy}-N-(pyrimidin-4-yl)-3-(trifluoromethyl)benzenesulfonamide], the half-inhibitory concentration (IC50) came to 250 nM.

As for `Cn1nccc1[C@H]1CCC[C@@H]1Oc1cc(F)c(S(=O)(=O)Nc2cscn2)cc1Cl` (relative stereo) [Example 11, 5-Chloro-2-fluoro-4-{[(1S*,2R*)-2-(1-methyl-1H-pyrazol-5-yl)cyclopentyl]oxy}-N-(1,3-thiazol-4-yl)benzenesulfonamide Na salt], the IC50 amounted to 10 nM.

As to `Cn1nccc1[C@@H]1[C@@H](Oc2cc(F)c(S(=O)(=O)Nc3ccncn3)cc2F)CCC[C@H]1OCc1ccccc1` (relative stereo) [Example 100, 4-{[(1S*,2S*,3R*)-3-(Benzyloxy)-2-(1-methyl-1H-pyrazol-5-yl)cyclohexyl]oxy}-2,5-difluoro-N-(pyrimidin-4-yl)benzenesulfonamide], the IC50 came out at 380 nM.

As for `Cn1nccc1[C@H]1CCCCC[C@@H]1Oc1cc(F)c(S(=O)(=O)Nc2ncns2)cc1F` (relative stereo) [Example 9, 2,5-Difluoro-4-{[(1S*,2R*)-2-(1-methyl-1H-pyrazol-5-yl)cycloheptyl]oxy}-N-(1,2,4-thiadiazol-5-yl)benzenesulfonamide], the concentration for half-maximal inhibition (IC50) came to 14 nM.

`Cc1cc(S(=O)(=O)Nc2ccncn2)c(F)cc1O[C@H]1CC(F)(F)CC[C@@H]1c1ccn[nH]1` (relative stereo) [Example 155, 4-{[(1S*,2R*)-5,5-Difluoro-2-(1H-pyrazol-5-yl)cyclohexyl]oxy}-2-fluoro-5-methyl-N-(pyrimidin-4-yl)benzenesulfonamide]: the IC50 is 28 nM.

The IC50 is the concentration that inhibits the measured activity by half.
